Assay results as given in US9822128B1, “Substituted spirooxindoles” (KING SAUD UNIVERSITY, priority 2017, dated 2017).
Read-outs that look alike come from different tables or passages of the source.

Key:
PC-3 = assay: MTT cytotoxicity assay, prostate carcinoma cells; type: cell-based, human; conditions: for IC50: Homo sapiens, PC-3, MTT, 48 hrs incubation
Description: (§1) The cytotoxic activity of the compounds was tested against different mammalian cancer cells, prostate carcinoma cells (PC-3), hepatocellular carcinoma (HepG2) and colon cancer cells (HCT-116) and against African green monkey kidney cell line (Vero-B). The cell lines were obtained from American Type Culture Collection (ATCC). The cells were cultivated at 37° C. and 10% CO2 in DMEM (Lonza, 12-604F) medium supplemented with 10% fetal bovine serum (FBS, Lonza, Cat. No. 14-801E), 100 IU/ml penicillin and 100 μg/ml streptomycin (Lonza, 17-602E). Cisplatin (cis-diamineplatinum (II) dichloride) was used as a positive control and was obtained from Sigma then dissolved in 0.9% saline then stored as 8 mM stock solution at −20° C. The synthesized compounds were solubilized in DMSO and stored at −20° C. 0.5% crystal violet was prepared in Methanol and was used to stain the viable cells (Feoktistova, Geserick et al. 2016). Crystal violet binds to proteins and DNA in the adherent and viable cells so the stain is an indicator for the viability of the treated cells. The viability of the cells were quantified by using MTT reagent (3-(4,5-dimethylthiazol-2-yl)-2,5-diphenyl tetrazolium bromide), which measure the activity of mitochondrial dehydrogenase in the viable cells (Slater, Sawyer et al. 1963, Mosmann 1983).
(§2) Cytotoxicity was further assayed as follows. The cells were seeded in 96-well plate as 5*10^4 cells/mL (100 μL/well). A serial dilutions of tested compounds or cisplatin (100, 30, 10, 3.3, 1.1 or 0.37 μM) was added after overnight incubation of the cells at 37° C. and 5% CO2. DMSO was used as a control (0.1%). The cells were incubated for 48 hrs. After that, 15 μl of MTT (5 mg/mL PBS) was added to each well and incubated for another 4 hours. The formazan crystals were solubilized by 100 μL acidified SDS solution (10% SDS/0.01 M HCl). The absorbance was measured after 14 hours of incubation at 37° C. and 5% CO2 at 570 nm by Biotech plate reader. Each experiment was repeated three times and standard deviation was calculated (±). IC50% was calculated as the concentration that cause 50% inhibition for cell growth. The growth of the cells were monitored and the images were acquired by Gx microscopes (GXMGXD202 Inverted Microscope) (10× Eyepiece) after staining with crystal violet.

HCT-116 = assay: MTT cytotoxicity assay, colon cancer cells; type: cell-based, human; conditions: for IC50: Homo sapiens, HCT-116, MTT, 48 hrs incubation
Description: as §1, §2

Vero-B = assay: MTT cytotoxicity assay, normal kidney cell line; type: cell-based, African green monkey; conditions: Chlorocebus sabaeus, Vero B; Table 1; MTT, 48 hrs incubation; read-out: VERO-B (IC50% μM)
Description: as §1, §2

HepG2 = assay: MTT cytotoxicity assay, hepatocellular carcinoma cells; type: cell-based, human; conditions: for IC50: Homo sapiens, HepG2, MTT, 48 hrs incubation
Description: as §1, §2

Compound: O=C(/C=C/c1ccc2ccccc2c1)[C@H]1[C@H](c2ccc3ccccc3c2)[C@H]2CSCN2[C@]12C(=O)Nc1ccccc12 [Compound 4i, (3R,6′S,7′R,7a′S)-7′-(naphthalen-2-yl)-6′-((E)-3-(naphthalen-2-yl)acryloyl)-1′,6′,7′,7a′-tetrahydro-3′H-spiro[indoline-3,5′-pyrrolo[1,2-c]thiazol]-2-one]
- IC50 (PC-3; read-out: PC-3 (IC50% μM)): 2.9 ± 0.2 µM
- IC50 (PC-3; read-out: PC-3 (IC50% μg/ml)): 1.6 µg/mL
- SI (PC-3; Selectivity Index from IC50 normal (VERO-B) and IC50 cancer (PC-3)): 2.414
- IC50 (HCT-116; read-out: HCT-116 (IC50% μM)): 8 ± 0.3 µM
- IC50 (HCT-116; read-out: HCT-116 (IC50% μg/ml)): 4.4 µg/mL
- SI (HCT-116; Selectivity Index from IC50 normal (VERO-B) and IC50 cancer (HCT-116)): 0.875
- IC50 (Vero-B): 7 µM
- IC50 (HepG2; read-out: HepG2 (IC50% μM)): 2.4 ± 1 µM
- IC50 (HepG2; read-out: HepG2 (IC50% μg/ml)): 1.3 µg/mL
- SI (HepG2; Selectivity Index from IC50 normal (VERO-B) and IC50 cancer (HepG2)): 2.917
